Assay [1] has as its target T1, Paired box protein Pax-3 (Homo sapiens, UniProt P23760). Kind of assay: Inhibition of PAX3-FOXO1 (unknown origin) fusion protein expressed human Rh4 cells cotransfected with ALK-Luc incubated for 24 hrs by Steady-Glo luciferase assay.
For assay [2], the target named is T1, Paired box protein Pax-3. Kind of assay: Inhibition of PAX3-FOXO1 (unknown origin) fusion protein expressed human Rh4 cells cotransfected with CMV-Luc incubated for 24 hrs by Steady-Glo luciferase assay.

T1 sequence (P23760 whole entry, the tested form may be a part): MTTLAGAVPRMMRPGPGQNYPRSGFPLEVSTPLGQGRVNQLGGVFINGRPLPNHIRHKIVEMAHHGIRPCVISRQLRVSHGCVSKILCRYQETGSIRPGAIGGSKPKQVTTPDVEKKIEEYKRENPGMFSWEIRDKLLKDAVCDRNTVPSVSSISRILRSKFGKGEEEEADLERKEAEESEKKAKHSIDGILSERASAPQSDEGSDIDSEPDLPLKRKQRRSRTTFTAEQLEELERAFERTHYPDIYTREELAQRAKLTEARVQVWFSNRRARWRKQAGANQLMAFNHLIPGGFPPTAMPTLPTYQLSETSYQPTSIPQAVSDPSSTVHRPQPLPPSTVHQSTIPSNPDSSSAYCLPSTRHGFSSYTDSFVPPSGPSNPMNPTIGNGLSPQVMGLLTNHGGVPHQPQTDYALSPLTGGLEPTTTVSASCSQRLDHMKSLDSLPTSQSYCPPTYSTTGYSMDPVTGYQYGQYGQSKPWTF

By IC50 is commonly meant the concentration that inhibits the measured activity by half. Low readings indicate greater potency in that assay, high ones weaker potency in that assay. With `COC(=O)c1cc2c(OS(=O)(=O)CCNc3c4c(cn(C)c3=O)C(=O)C(OC)=C(C)C4=O)c(C)c(OC)c(O)c2c[n+]1C`, the IC50 was 6.4 µM at Paired box protein Pax-3 [1] and 11.8 µM at Paired box protein Pax-3 [2].

With `COC1=C(C)C(=O)c2c(cn(C)c(=O)c2NCCS(=O)(=O)Oc2c(C)c(OC)c(O)c3c[n+](C)ccc23)C1=O`, the IC50 at Paired box protein Pax-3 [1] was determined as 5.4 µM; on Paired box protein Pax-3 [2] it was 9.4 µM.

Turning to `COC1=C(C)C(=O)c2c(cn(C)c(=O)c2NCCS(=O)(=O)Oc2c(C)c(OC)c(O)c3c[n+](C)c(C(=O)O)cc23)C1=O`, the IC50 is 5.7 µM against Paired box protein Pax-3 [1] and 9.8 µM against Paired box protein Pax-3 [2].

These data come from BindingDB's records for doi:10.1021/acs.jnatprod.3c01041 (National Cancer Institute, 2024).
